# Results: patent US5648369A, “Aminoalkylpyridine compounds which are useful as anitconvulsant drugs, excitatory amino acid inhibitors and NMDA sigma receptor antagonists” (priority 1991, dated 1997)
# Tests used:
# NMDA = experiment: Radioligand binding, NMDA, [3H]CGS19755
# From the text: (§1) EAAs are known to play important roles in excitatory neurotransmission in partial seizures as discussed earlier. […] Thus, several aminoalkylpyridines of this invention are effective antagonists of NMDA-receptor mediated EAA neurotransmission and function as noncompetitive NMDA antagonists and thus can be used to advantage in epilepsy, stroke and Alzheimer's disease.
# (§2) EAAs are known to play important roles in excitatory transmission in partial seizures as discussed earlier. In general, antieptileptic drugs effective against MES seizures alter ionic transport across excitable membranes [Porter, R. J., and Pitlick, W. H., In "Basic and Clinical Pharmacology", 4th Edn., B. G. Katzung, Ed., Appleton and Lange, CA 1989, pp. 287-303]. Based on this rationale, the aminoalkylpyridines may be expected to attenuate EAA neurotransmission. Indeed, evaluation of potential displacement activity of #2 at all inhibitory and excitatory amino acid receptor types and subtypes using appropriate radioligands, indicate that this aminoalkylpyridine inhibits at 10 μM concentration, 49% of the binding of [^3 H]DTG, a ligand highly specific for the σ (sigma) receptor population of the PCP receptors on the NMDA receptor-ionophore complex (Table 6).
# (§3) Values are expressed as the percent inhibition of specific binding and […]
# Benzodiazepine = experiment: Radioligand binding, Benzodiazepine
# From the text: as §1, §2, §3
# Adenosine = experiment: Radioligand binding, Adenosine
# From the text: as §1, §2, §3
# Glycine [1] = target: Glycine (Homo sapiens, UniProt P23415); experiment: Radioligand binding, Glycine (inhibitory)
# Sequence of Glycine (Homo sapiens, UniProt P23415) (P23415 29-457): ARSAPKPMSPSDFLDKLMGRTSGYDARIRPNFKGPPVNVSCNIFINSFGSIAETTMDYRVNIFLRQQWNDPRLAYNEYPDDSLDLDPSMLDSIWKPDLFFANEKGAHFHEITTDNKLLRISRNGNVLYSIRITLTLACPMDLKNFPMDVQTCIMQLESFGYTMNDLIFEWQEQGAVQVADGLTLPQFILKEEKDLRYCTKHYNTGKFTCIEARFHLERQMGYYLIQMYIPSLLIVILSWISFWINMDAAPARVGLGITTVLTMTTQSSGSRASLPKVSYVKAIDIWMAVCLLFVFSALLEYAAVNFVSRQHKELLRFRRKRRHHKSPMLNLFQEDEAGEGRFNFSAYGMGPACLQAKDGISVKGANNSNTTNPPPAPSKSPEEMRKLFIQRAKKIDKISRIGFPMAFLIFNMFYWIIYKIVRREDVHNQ
# Sequence of Glycine (Homo sapiens, UniProt P23415) (P48167 23-497 partner): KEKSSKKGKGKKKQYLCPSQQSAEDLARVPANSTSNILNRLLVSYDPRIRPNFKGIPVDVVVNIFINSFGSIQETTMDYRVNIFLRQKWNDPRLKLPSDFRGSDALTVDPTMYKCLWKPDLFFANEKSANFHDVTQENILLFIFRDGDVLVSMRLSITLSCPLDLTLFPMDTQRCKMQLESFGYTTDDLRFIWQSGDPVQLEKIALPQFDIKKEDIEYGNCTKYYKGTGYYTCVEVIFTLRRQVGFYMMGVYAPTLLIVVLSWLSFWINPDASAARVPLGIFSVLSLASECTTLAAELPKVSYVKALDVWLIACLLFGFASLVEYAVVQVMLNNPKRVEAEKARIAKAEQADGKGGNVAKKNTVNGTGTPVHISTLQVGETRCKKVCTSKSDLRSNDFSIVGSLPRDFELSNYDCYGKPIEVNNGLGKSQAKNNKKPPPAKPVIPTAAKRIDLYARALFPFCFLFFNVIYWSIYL
# From the text: (§4) EAAs are known to play important roles in excitatory neurotransmission in partial seizures as discussed earlier.
# (§5) EAAs are known to play important roles in excitatory transmission in partial seizures as discussed earlier.
# PCF = experiment: Radioligand binding, PCP, [3H]TCP
# From the text: as §1, §2, §3
# MES and scMet seizures = experiment: Anticonvulsant screening, ASP classification (MES and scMet tests) in mice, i.p.; type: in vivo, mouse; conditions: ip; i.p. mouse; read-out: ASP Group Classification
# [2] = system: maximal electroshock seizures; experiment: Maximal electroshock seizure (MES) test, anticonvulsant quantification in mice, i.p.
# Procedure: Screening Methodology to Determine Anticonvulsant Activity: In mice, i.p.: All compounds are solubilized in 0.5% methylcellulose. […] The compounds are administered intraperitoneally in a volume of 0.01 ml/gm to male Carworth Farms #1 mice weighing about 20 gm. All compounds are tested at least at three dose levels (30, 100 an 300 mg/kg) at 30 minutes and 4 hours after their administration.
# (§7) The Maximal Electroshock Seizure Test (MES): Maximal electroshock seizures are elicited with a 60 Hz alternating current of 50 mA intensity in mice and about 150 mA in rats (5-7 times that necessary to elicit minimal electroshock seizures), delivered for 0.2 sec via corneal electrodes. A drop of 0.9% saline is instilled in the eye prior to application of the electrodes in order to prevent the death of the animal. Abolition of the hind limb tonic extension component of the seizure is defined as protection and results are expressed as number of animals protected/number of animals tested.
# Anticonvulsant Quantification in Mice, i.p.: The ED50 values are determined in the MES, scMet and rotorod ataxia test.
# Kainate = experiment: Radioligand binding, Kainate, [3H]KA
# From the text: as §1, §2, §3
# [3] = system: endogenous L-glutamate release; experiment: Ca2+ dependent, K+ evoked release of endogenous L-glutamate in cerebrocortical slices; type: cell-based, guinea pig; conditions: Cavia porcellus; for activity at 50 µM / activity at 100 µM: means ± SEM, n = 4
# MK-801 = experiment: Radioligand binding, MK-801, [3H]MK-801
# From the text: as §1, §2, §3
# GABAA = experiment: Radioligand binding, GABAA
# From the text: as §4, §5
# [4] = Rotorod ataxia test (neurotoxicity), mice, i.p.; conditions: mouse, in vivo, ip
# Procedure: Neurotoxicity is evaluated in mice by the rotorod ataxia test. The animal is placed on a wooden rod of 11/8" diameter rotating at 6 rpm. Normal mice can remain on a rod rotating at this speed indefinitely.
# in vivo = experiment: in vivo; design: species or system rat (Sprague-Dawley); conditions: rat, po
# From the text: Inability to do so rapidly indicates a neurologic deficit.
# Glycine [5] = target: Glycine (Homo sapiens, UniProt Q05586); experiment: Radioligand binding, Glycine (excitatory), [3H]glycine
# From the text: as §4, §5
# Sigma = experiment: Radioligand binding, Sigma, [3H]DTG
# From the text: as §4, §5
# [6] = system: subcutaneous pentylenetetrazol seizures; experiment: Subcutaneous pentylenetetrazol (Metrazole) seizure threshold test (scMet), mice, i.p.; type: in vivo; conditions: Mus musculus, ip
# Procedure: (§6) The Subcutaneous Pentylenetetrazol (Metrazole) Seizure Threshold Test (scMet): A 0.5% solution of 85 mg/kg of pentylenetetrazol is administered subcutaneously in the posterior midline. The animal is observed for 30 minutes.
# [7] = system: maximal electroshock seizures; experiment: Maximal electroshock seizure (MES) test in the rat, p.o.
# From the text: as §7
# This species will be subject of the complete anticonvulsant quantification test evaluation as described above, but after oral (gavage) administration of the candidate compound.
# Neurological deficit in rats is examined by the positional sense test and gait and stance test. […] Inability to do so rapidly indicates a neurologic deficit. In the gait and stance test, a neurologic deficit is indicated by a circular or zigzag gait, ataxia, abnormal spread of the legs, abnormal body posture, tremor, hyperactivity, lack of exploratory behavior, somnolence, stupor, or catalepsy.
# [8] = system: subcutaneous pentylenetetrazol seizures; experiment: Subcutaneous pentylenetetrazol seizure threshold test (scMet), rat, p.o.; type: in vivo, rat (Sprague-Dawley); conditions: po
# Procedure: as §6
# GABAe = GABAe (Homo sapiens, UniProt Q9UBS5); experiment: Radioligand binding, GABAe
# Sequence of GABAe (Q9UBS5 15-961 limits assumed): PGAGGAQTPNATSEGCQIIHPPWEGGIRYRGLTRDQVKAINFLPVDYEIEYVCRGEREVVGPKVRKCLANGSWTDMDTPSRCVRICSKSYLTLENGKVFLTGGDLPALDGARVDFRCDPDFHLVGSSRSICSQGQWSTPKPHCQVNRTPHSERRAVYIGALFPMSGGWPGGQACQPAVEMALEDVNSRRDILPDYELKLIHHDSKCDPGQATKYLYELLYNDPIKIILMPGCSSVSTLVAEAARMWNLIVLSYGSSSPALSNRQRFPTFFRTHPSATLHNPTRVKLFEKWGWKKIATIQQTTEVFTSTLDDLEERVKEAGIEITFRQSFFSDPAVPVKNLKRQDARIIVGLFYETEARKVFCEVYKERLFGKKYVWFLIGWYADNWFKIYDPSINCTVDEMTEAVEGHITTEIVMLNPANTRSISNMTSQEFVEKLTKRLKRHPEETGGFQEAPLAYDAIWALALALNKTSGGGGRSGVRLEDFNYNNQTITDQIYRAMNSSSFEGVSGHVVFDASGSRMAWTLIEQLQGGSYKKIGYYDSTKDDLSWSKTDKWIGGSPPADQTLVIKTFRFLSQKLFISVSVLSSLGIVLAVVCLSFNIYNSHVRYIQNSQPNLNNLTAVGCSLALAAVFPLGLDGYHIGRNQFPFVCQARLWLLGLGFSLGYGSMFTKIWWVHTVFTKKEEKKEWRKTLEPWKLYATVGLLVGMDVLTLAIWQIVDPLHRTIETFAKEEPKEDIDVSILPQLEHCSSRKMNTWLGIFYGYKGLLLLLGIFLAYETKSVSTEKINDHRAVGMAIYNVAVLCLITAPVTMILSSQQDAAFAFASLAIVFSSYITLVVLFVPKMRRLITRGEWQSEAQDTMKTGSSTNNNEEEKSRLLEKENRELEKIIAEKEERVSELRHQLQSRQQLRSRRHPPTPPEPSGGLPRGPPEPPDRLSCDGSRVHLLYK
# Sequence of GABAe (O75899 42-941 partner): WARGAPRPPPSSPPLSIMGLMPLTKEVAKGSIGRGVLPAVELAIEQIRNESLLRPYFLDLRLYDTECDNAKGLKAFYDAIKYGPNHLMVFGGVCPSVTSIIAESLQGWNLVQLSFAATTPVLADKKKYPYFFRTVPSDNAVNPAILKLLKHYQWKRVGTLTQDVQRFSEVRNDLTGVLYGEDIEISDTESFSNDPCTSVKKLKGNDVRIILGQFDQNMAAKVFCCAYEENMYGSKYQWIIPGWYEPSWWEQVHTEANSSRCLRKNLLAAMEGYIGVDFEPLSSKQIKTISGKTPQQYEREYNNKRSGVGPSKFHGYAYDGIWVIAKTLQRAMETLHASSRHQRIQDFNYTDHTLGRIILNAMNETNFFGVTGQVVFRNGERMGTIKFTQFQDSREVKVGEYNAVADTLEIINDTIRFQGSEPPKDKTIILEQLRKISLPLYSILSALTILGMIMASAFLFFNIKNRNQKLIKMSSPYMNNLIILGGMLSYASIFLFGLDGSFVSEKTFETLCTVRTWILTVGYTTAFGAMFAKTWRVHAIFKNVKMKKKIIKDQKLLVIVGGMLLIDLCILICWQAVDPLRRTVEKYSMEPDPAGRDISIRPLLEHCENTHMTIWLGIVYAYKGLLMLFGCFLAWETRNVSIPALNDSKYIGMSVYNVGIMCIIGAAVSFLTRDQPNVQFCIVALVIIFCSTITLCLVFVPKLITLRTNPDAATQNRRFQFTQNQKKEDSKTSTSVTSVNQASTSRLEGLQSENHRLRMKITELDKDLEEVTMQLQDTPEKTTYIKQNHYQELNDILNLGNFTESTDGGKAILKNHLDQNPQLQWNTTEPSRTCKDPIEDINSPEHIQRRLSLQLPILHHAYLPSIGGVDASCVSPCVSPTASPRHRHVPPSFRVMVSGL
# From the text: as §4, §5
# Quisqualate = experiment: Radioligand binding, Quisqualate, [3H]AMPA
# From the text: as §1, §2, §3
# [9] = 10^-7 M, read-out: Percent Inhibition of specific binding (Average; N = 2)
structure (smiles),measurement,setting,value
"O=C(O)C1CN(CCCP(=O)(O)O)CCN1 (stereo not shown) [CPP, reference compound]",Ki,"NMDA; reference compound, [3H]CGS19755",359 nM
"O=C1CN=C(c2ccccc2Cl)c2cc([N+](=O)[O-])ccc2N1 [Clonazepam, reference compound]",Ki,"Benzodiazepine; reference compound, Benzodiazepine",3.4 nM
"CC(Nc1ccc(Cl)cc1)c1ccncc1 (stereo not shown) [Compound 2, 1-(4-Chloroanilino)-1-(4-pyridyl)-ethan]",Percent Inhibition of specific binding (Average; N = 2),NMDA; 1.0^-5 M,-6.6%
same,Percent Inhibition of specific binding (Average; N = 2),NMDA; 10^-7 M,3.5%
same,Percent Inhibition of specific binding (Average; N = 2),Adenosine; 1.0^-5 M,-15.9%
same,Percent Inhibition of specific binding (Average; N = 2),Adenosine; 10^-7 M,-15.2%
same,Percent Inhibition of specific binding (Average; N = 2),Glycine [1]; 1.0^-5 M,-1.4%
same,inhibition at 0.1 µM,Glycine [1]; [9],-1.8%
same,activity at the [3H]TCP-binding receptor sites / PCP receptors (in words),PCF,no activity
same,Percent Inhibition of specific binding (Average; N = 2),PCF; 1.0^-5 M,-1.8%
same,Percent Inhibition of specific binding (Average; N = 2),PCF; 10^-7 M,-3.8%
same,minimal effective dose,MES and scMet seizures,< 100 mg/kg
same,ED50,"[2]; Mus musculus, ip, read-out: ED50 MES",53.7 mg/kg
same,P.I. MES (TD50/ED50),"[2]; mice, i.p.",2.98
same,Percent Inhibition of specific binding (Average; N = 2),Kainate; 1.0^-5 M,-7.3%
same,Percent Inhibition of specific binding (Average; N = 2),Kainate; 10^-7 M,-3.7%
same,activity at 50 µM,"[3]; 50 μM (K+), 30 mM K+, P < 0.001 vs K+ alone",121 ± 8%
same,activity at 50 µM,[3]; 50 μM (basal),101 ± 6%
same,activity at 100 µM,"[3]; 100 μM (K+), 30 mM K+, P < 0.001 vs K+ alone",114 ± 4%
same,activity at 100 µM,[3]; 100 μM (basal),99 ± 9%
same,inhibition at 50 µM,[3]; 50 μM,74%
same,inhibition at 100 µM,[3]; 100 μM,80%
same,activity at the [3H]MK-801-binding receptor sites (in words),MK-801,no activity
same,Percent Inhibition of specific binding (Average; N = 2),MK-801; 1.0^-5 M,17.0%
same,Percent Inhibition of specific binding (Average; N = 2),MK-801; 10^-7 M,13.5%
same,Percent Inhibition of specific binding (Average; N = 2),GABAA; 1.0^-5 M,1.2%
same,Percent Inhibition of specific binding (Average; N = 2),GABAA; 10^-7 M,6.5%
same,TD50,[4],160 mg/kg
same,TD50,in vivo,> 470 mg/kg
same,Percent Inhibition of specific binding (Average; N = 2),Glycine [5]; 1.0^-5 M,-4.0%
same,inhibition at 0.1 µM,Glycine [5]; [9],8.7%
same,inhibition of the binding of [3H]DTG,Sigma; 10 μM concentration,49%
same,Percent Inhibition of specific binding (Average; N = 2),Sigma; 1.0^-5 M,49.1%
same,Percent Inhibition of specific binding (Average; N = 2),Sigma; 10^-7 M,12.9%
same,inhibition of the binding of [3H]DTG (in words),Sigma; σ receptor population,inhibit selectively
same,ED50,[6],< 150 mg/kg
same,ED50,"[7]; Rattus norvegicus, po, read-out: ED50 MES",22.9 mg/kg
same,responders at 50 mg/kg,"[7]; Rattus norvegicus, po, read-out: Percent protection at 50 mg/kg dose, p.o., in the MES Test in the rat",75 to 100%
same,P.I. MES (TD50/ED50),"[7]; rat, p.o.",> 20.53
same,ED50,[8],> 250 mg/kg
same,Percent Inhibition of specific binding (Average; N = 2),Benzodiazepine; 1.0^-5 M,-7.8%
same,Percent Inhibition of specific binding (Average; N = 2),Benzodiazepine; 10^-7 M,-4.7%
same,Percent Inhibition of specific binding (Average; N = 2),GABAe; 1.0^-5 M,-4.9%
same,inhibition at 0.1 µM,GABAe; [9],3.6%
same,Percent Inhibition of specific binding (Average; N = 2),Quisqualate; 1.0^-5 M,4.3%
same,Percent Inhibition of specific binding (Average; N = 2),Quisqualate; 10^-7 M,4.2%
"C=C(C)[C@H]1CN[C@H](C(=O)O)[C@H]1CC(=O)O [Kainic Acid, reference compound]",Ki,"Kainate; reference compound, [3H]KA",24.9 nM
"NCc1cc(=O)[nH]o1 [Muscimol, reference compound]",Ki,"GABAA; reference compound, GABAA",2.8 nM
"O=C1C[C@@H]2OCC=C3CN4CC[C@]56c7ccccc7N1[C@H]5[C@H]2[C@H]3C[C@H]46 [Strychnine Nitrate, reference compound]",Ki,Glycine [1],33.5 nM
